Here are results for four compounds from ChEMBL document CHEMBL5120959, “Pyrrospirones K-Q, Decahydrofluorene-Class Alkaloids from the Marine-Derived Fungus Penicillium sp. SCSIO 41512” (J Nat Prod, 2022).

Converted amounts (≈) assume the structure as drawn.

Assay [1] deals with T1, Tyrosine-protein phosphatase non-receptor type 1 (Homo sapiens, UniProt P18031).
T1 sequence (P18031 whole entry): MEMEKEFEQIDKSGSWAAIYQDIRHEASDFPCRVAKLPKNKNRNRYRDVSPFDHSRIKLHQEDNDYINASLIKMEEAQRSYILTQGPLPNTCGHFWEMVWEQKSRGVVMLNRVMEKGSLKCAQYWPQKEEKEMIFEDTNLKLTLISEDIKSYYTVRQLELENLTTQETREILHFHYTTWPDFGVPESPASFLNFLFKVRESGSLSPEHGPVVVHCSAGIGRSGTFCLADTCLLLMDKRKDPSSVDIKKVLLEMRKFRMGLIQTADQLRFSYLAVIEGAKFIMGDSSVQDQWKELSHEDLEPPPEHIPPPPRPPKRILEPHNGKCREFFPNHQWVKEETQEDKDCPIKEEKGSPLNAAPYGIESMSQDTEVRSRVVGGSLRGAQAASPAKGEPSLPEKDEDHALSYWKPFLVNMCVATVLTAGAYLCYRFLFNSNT
The assay is described as follows: Inhibition of human PTP1B.

A further assay deals with Bacillus subtilis. The experiment in a line: Antibacterial activity against Bacillus subtilis BS01 assessed as reduction in microbial growth after 12 hrs by microbroth dilution method. The assay is classed as functional. (In general: In broth dilution the organism is exposed to a series of concentrations in liquid medium.)
For assay [2], the system named is Escherichia coli. The experiment in a line: microbe, parasite or virus in culture. As to conditions: ATCC 25922, time 12 hrs. The assay is classed as functional.
Description: Antibacterial activity against Escherichia coli ATCC 25922 assessed as reduction in microbial growth after 12 hrs by microbroth dilution method
For assay [3], the system named is Escherichia coli. The experiment in a line: Antibacterial activity against Escherichia coli assessed as reduction in microbial growth after 12 hrs by broth microdilution method. Format: functional.
The target of assay [4] is Receptor-type tyrosine-protein phosphatase F (Homo sapiens, UniProt P10586). The experiment in a line: Inhibition of human LAR.
Chain of Receptor-type tyrosine-protein phosphatase F (P10586 whole entry): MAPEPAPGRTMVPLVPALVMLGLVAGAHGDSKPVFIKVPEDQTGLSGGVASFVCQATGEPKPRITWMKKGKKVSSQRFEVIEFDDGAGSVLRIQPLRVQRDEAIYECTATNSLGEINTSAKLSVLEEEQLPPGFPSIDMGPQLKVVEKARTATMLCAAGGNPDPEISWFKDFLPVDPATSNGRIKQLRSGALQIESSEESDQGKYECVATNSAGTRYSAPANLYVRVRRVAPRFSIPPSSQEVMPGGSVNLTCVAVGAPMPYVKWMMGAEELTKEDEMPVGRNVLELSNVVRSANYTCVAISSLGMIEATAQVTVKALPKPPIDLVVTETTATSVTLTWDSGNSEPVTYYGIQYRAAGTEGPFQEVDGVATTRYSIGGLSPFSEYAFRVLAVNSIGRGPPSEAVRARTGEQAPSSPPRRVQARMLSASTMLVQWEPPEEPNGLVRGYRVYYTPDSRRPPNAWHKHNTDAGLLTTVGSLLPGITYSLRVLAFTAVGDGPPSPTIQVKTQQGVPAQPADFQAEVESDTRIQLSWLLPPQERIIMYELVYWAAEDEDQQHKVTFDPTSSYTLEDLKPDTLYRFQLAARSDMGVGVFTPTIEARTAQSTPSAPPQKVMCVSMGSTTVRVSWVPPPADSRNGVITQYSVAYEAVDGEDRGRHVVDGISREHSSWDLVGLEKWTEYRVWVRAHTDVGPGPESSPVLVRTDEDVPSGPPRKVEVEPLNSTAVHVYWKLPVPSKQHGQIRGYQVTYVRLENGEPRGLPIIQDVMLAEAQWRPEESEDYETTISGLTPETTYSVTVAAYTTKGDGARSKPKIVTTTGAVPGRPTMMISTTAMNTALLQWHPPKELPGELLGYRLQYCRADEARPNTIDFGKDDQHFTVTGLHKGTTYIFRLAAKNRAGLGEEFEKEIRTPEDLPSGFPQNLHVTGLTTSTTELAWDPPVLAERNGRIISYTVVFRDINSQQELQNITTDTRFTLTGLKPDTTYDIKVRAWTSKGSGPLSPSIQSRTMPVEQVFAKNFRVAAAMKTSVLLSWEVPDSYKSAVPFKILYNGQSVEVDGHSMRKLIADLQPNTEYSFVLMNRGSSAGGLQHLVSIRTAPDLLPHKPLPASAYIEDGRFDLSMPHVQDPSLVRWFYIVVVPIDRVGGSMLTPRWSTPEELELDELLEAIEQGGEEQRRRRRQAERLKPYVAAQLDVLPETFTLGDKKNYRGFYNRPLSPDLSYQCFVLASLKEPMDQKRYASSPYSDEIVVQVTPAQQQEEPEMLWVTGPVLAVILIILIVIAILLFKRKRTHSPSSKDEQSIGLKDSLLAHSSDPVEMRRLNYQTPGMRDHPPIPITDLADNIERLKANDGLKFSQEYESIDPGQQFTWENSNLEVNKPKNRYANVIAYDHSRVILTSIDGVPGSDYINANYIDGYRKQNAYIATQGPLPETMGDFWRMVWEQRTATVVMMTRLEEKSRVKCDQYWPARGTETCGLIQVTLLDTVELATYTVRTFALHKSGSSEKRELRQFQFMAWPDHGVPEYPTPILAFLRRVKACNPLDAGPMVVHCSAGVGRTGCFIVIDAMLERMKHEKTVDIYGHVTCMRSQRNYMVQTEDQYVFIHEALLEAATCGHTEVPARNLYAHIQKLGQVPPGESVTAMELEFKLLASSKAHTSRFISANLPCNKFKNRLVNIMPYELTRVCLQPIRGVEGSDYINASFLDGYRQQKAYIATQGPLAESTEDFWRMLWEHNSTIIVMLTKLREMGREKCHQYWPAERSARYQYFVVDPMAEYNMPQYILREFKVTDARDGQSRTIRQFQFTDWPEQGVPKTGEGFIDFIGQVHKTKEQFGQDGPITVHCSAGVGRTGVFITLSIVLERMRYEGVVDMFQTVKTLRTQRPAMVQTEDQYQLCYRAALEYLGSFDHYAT
Assay [5] has as its system Staphylococcus aureus. The experiment in a line: Antibacterial activity against methicillin-resistant Staphylococcus aureus assessed as reduction in microbial growth after 12 hrs by broth microdilution method. The assay is classed as functional.
The target of assay [6] is T2, Tyrosine-protein phosphatase non-receptor type 2 (Homo sapiens, UniProt P17706).
T2 sequence (P17706 whole entry): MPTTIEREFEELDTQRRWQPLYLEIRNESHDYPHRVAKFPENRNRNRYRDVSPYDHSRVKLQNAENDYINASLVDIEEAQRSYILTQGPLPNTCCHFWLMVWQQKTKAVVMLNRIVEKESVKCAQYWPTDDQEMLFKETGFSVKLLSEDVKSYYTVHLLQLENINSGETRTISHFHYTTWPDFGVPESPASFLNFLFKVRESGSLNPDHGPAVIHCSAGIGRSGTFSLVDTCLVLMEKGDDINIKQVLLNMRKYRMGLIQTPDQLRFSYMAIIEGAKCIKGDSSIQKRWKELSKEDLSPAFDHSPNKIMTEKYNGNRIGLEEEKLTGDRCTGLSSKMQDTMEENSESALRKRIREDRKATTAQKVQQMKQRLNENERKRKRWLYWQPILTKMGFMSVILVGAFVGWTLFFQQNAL
The experiment in a line: Inhibition of human TCPTP.

The target in assay [7] is T3, Receptor-type tyrosine-protein phosphatase C (Homo sapiens, UniProt P08575).
T3 sequence (P08575 whole entry): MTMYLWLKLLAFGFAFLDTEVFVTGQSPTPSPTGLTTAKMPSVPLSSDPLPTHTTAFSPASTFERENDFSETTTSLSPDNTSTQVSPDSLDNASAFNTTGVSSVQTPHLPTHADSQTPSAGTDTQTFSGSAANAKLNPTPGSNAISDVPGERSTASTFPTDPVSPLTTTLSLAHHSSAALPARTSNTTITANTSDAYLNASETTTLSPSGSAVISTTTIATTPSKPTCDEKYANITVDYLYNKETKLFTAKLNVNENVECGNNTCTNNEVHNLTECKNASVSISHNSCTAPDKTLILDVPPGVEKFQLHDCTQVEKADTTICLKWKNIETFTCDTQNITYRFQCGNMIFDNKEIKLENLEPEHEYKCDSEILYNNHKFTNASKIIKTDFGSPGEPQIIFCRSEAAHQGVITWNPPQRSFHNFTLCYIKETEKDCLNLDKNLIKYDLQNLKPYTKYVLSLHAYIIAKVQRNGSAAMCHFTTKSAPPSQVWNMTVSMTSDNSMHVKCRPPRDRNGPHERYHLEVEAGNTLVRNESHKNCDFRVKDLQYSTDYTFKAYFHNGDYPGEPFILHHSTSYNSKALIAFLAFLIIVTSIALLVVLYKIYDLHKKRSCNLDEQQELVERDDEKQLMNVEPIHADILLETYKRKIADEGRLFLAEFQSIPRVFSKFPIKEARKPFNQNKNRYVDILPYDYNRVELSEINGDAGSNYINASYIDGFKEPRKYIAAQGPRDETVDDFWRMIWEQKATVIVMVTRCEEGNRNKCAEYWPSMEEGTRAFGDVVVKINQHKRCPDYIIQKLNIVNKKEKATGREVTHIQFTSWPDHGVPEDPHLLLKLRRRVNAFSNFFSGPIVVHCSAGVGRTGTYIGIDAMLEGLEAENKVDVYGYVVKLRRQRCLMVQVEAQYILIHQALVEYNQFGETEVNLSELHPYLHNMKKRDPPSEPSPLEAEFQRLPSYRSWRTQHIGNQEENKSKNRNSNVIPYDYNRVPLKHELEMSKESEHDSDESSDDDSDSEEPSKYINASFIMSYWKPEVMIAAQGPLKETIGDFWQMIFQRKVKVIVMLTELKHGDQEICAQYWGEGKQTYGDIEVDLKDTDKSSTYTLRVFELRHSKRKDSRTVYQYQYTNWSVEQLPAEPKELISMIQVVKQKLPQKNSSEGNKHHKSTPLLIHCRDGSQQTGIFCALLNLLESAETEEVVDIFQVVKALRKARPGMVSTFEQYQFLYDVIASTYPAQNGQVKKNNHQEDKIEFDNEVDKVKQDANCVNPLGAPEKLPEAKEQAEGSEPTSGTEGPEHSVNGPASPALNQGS
The experiment in a line: Inhibition of human CD45.

A further assay concerns Streptococcus agalactiae. The experiment in a line: Antibacterial activity against Streptococcus agalactiae ATCC 13813 assessed as reduction in microbial growth after 12 hrs by microbroth dilution method. Format: functional.
Assay [8] relates to Staphylococcus aureus. The experiment in a line: Antibacterial activity against Staphylococcus aureus ATCC 6538 assessed as reduction in microbial growth after 12 hrs by microbroth dilution method. The assay is classed as functional.
Assay [9] has as its system Staphylococcus aureus. The assay is described as follows: Antibacterial activity against methicillin-resistant Staphylococcus aureus assessed as reduction in microbial growth after 12 hrs by microbroth dilution method. Format: functional.
The target of assay [10] is Tyrosine-protein phosphatase non-receptor type 6 (Homo sapiens, UniProt P29350). The experiment in a line: Inhibition of human SHP1.
Chain of Tyrosine-protein phosphatase non-receptor type 6 (P29350 whole entry): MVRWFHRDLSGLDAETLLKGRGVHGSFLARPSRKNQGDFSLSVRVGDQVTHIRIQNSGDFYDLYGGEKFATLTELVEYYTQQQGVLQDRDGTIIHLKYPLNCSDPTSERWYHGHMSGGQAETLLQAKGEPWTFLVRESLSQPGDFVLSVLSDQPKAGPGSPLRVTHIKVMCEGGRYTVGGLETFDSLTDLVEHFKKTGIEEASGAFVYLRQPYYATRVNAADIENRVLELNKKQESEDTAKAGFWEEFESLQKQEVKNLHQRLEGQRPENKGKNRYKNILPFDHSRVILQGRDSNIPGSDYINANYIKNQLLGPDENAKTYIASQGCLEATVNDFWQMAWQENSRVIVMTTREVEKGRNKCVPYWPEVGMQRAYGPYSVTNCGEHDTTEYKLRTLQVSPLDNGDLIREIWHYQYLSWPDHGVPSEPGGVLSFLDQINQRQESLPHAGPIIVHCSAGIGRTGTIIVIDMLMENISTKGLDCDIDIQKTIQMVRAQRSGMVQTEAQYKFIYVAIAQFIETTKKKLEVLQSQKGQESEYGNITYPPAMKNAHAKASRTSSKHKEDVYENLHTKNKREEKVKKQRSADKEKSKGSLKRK
For assay [11], the system named is Bacillus amyloliquefaciens. The assay is described as follows: Antibacterial activity against Bacillus amyloliquefaciens GDMCC 60233 assessed as reduction in microbial growth after 12 hrs by microbroth dilution method. Format: functional.
Assay [12] relates to Mycobacterium tuberculosis. The assay is described as follows: Antitubercular activity against Mycobacterium tuberculosis H37Ra. Format: functional.

One may read the IC50 as the concentration that inhibits the measured activity by half. A high value points to weaker potency. Regarding `CO[C@@H]1C2Cc3ccc(cc3)O[C@H]3[C@@H]4[C@H]5C(=O)[C@@]1(C[C@H](O)[C@@]5(C)C=C(C)[C@H]4[C@]1(C)C[C@H](C)C[C@H](C)[C@@H]31)C(=O)N2`, the IC50 in assay [1] is 66 µM; in assay [4], more than 200 µM; in [6] it was more than 200 µM; in assay [7] it was more than 200 µM; in assay [10], 80 µM. Besides, the MIC in the assay with Bacillus subtilis turned out to be 50 µg/mL; in the assay with Escherichia coli [2], 50 µg/mL (≈ 93.7 µM); in the assay on Escherichia coli [3] it was 2 µg/mL; in the assay on Staphylococcus aureus [5], 2 µg/mL; with Streptococcus agalactiae, 100 µg/mL; in the assay with Staphylococcus aureus [8] it was 100 µg/mL. The MIC (with Staphylococcus aureus [9]; in assay [11]) was 100 µg/mL throughout.

As for `C=C[C@H]1C=C[C@@H]2[C@@H]3[C@@H](Oc4ccc(cc4)C[C@@]4(O)C[C@H](C(=O)N4)C(=O)[C@@H]13)[C@@H]1CC[C@@H](C)C[C@@]21C`, in assay [12], the MIC turned out to be 0.78 µg/mL (≈ 1.69 µM).

Turning to `CC1=C[C@@]2(C)[C@@H]3C(=O)[C@@]4(C[C@@H]2O)C(=O)NC(Cc2ccc(cc2)O[C@H]2[C@H]3[C@@H]1[C@]1(C)C[C@H](C)C[C@H](C)[C@@H]21)[C@H]4O`, the IC50 in assay [1] was 100 µM; in assay [4], more than 200 µM; in assay [6], more than 200 µM; in [7] it was more than 200 µM; in assay [10], 200 µM. Also, the MIC amounted to 10 µg/mL in the assay with Bacillus subtilis; 5 µg/mL (≈ 9.62 µM) in the assay with Escherichia coli [2]; 2 µg/mL in the assay with Escherichia coli [3]; 2 µg/mL in the assay with Staphylococcus aureus [5]; 10 µg/mL with Streptococcus agalactiae; 10 µg/mL with Staphylococcus aureus [8]. The results for the MIC (in the assay with Staphylococcus aureus [9]; in assay [11]) were 10 µg/mL and 20 µg/mL, respectively.

Regarding `CO[C@@H]1C2Cc3ccc(cc3)O[C@H]3[C@@H]4[C@H]5C(=O)[C@@]1(C[C@@H](O)[C@@]5(C)C=C(C)[C@H]4[C@]1(C)C[C@H](C)C[C@H](C)[C@@H]31)C(=O)N2`, the IC50 is 100 µM in [1]; more than 200 µM in [4]; more than 200 µM in [6]; more than 200 µM in assay [7]; 100 µM in [10]. For the same compound, the MIC in the assay with Bacillus subtilis came to 10 µg/mL; against Escherichia coli [2] it was 5 µg/mL (≈ 9.37 µM); in the assay on Escherichia coli [3], 2 µg/mL; in the assay on Staphylococcus aureus [5], 2 µg/mL; in the assay on Streptococcus agalactiae, 20 µg/mL; in the assay on Staphylococcus aureus [8], 20 µg/mL. For the same compound, the MIC (in the assay with Staphylococcus aureus [9]; in assay [11]) was 20 µg/mL each time.
